What was measured:
[1] = molecular target: T1, full length (FL) LXRβ (Homo sapiens, UniProt P55055, DUP175-175); assay: LXR Gal4 reporter transient transfection assay (FL-M2H Gal4β); assay type: cell-based; conditions: HEK293 cells, full length LXRβ; read-out: FL-M2H Gal4β (EC50 range)
T1 construct: the full length (FL) proteins of LXRα (amino acids 1-447); NP005684; NP009052; expressed in transfected cells; host or cells: HEK293
T1 sequence (P55055 with tags, fused parts or gaps DUP175-175): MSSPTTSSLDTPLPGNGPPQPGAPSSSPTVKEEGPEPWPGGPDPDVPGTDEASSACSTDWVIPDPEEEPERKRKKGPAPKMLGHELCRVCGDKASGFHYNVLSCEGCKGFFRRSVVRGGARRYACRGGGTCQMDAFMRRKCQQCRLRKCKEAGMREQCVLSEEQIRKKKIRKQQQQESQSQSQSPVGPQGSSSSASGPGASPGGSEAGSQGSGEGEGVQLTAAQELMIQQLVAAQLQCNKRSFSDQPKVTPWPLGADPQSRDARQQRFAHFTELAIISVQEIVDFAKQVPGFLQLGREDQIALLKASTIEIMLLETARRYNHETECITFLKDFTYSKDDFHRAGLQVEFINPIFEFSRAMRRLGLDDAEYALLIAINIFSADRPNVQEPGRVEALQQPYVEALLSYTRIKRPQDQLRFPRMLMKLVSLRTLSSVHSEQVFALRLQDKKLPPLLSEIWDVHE
Experimental: (§1) The tested compounds were usually dissolved, tested and stored as 20 mM stock solutions in DMSO. Since sulfonyl acetic acid derivatives tend to decarboxylate under these conditions, these stock solutions were prepared, tested and stored as 20 mM DMSO stock solutions containing 100 mM trifluoroacetic Acid (5 equivalents). Sulfonyl acetic acid derivatives are shelf stable as solid at rt for long time as reported by Griesbrecht et al. (Synlett 2010:374) or Faucher et al. (J. Med. Chem. 2004; 47:18).
LXR Gal4 Reporter Transient Transfection Assays
LXRα and LXRβ activity status was determined via detection of interaction with coactivator and corepressor proteins in mammalian two-hybrid experiments (M2H). For this, via transient transfection the full length (FL) proteins of LXRα (amino acids 1-447; NP005684; SEQ ID NO:1) or LXRβ-(amino acids 1-461; NP009052; SEQ ID NO:2) or the ligand-binding domains (LBD) of LXRα (amino acids 155-447 SEQ ID NO:3) or LXRβ (amino acids 156-461; SEQ ID NO:4) were expressed from pCMV-AD (Stratagene) as fusions to the transcriptional activation domain of NFkB. As cofactors, domains of either the steroid receptor coactivator 1 (SRC1; amino acids 552-887; SEQ ID NO:5) or of the corepressor NCoR (amino acids 1906-2312; NP006302; SEQ ID NO:6) were expressed as fusions to the DNA binding domain of the yeast transcription factor GAL4 (from pCMV-BD; Stratagene). Interaction was monitored via activation of a coexpressed Firefly Luciferase Reporter gene under control of a promoter containing repetitive GAL4 response elements (vector pFRLuc; Stratagene). Transfection efficiency was controlled via cotransfection of constitutively active pRL-CMV Renila reniformis luciferase reporter (Promega). HEK293 cells were grown in minimum essential medium (MEM) with 2 mM L-glutamine and Earle's balanced salt solution supplemented with 8.3% fetal bovine serum, 0.1 mM non-essential amino acids, 1 mM sodium pyruvate, at 37° C. in 5% CO2. 3.5×10^4 cells/well were plated in 96-well cell culture plates in growth medium supplemented with 8.3% fetal bovine serum for 16-20 h to ˜90% confluency. For transfection, medium was taken off and LXR and cofactor expressing plasmids as well as the reporter plasmids are added in 30 μL OPTIMEM/well including polyethylene-imine (PEI) as vehicle. Typical amounts of plasmids transfected/well: pCMV-AD-LXR (5 ng), pCMV-BD-cofactor (5 ng), pFR-Luc (100 ng), pRL-CMV (0.5 ng). Compound stocks were prepared in DMSO, prediluted in MEM to a total volume of 120 μL, and added 4 h after addition of the transfection mixture (final vehicle concentration not exceeding 0.2%). Cells were incubated for additional 16 h, lysed for 10 min in 1× Passive Lysis Buffer (Promega) and Firefly and Renilla luciferase activities were measured sequentially in the same cell extract using buffers containing D-luciferine and coelenterazine, respectively. Measurements of luminescence were done in a BMG-luminometer.

[2] = molecular target: T2, LXRβ ligand-binding domain (Homo sapiens, UniProt P55055, DUP175-175); assay: TR-FRETβ activity assay (NCoA3 coactivator peptide recruitment); assay type: biochemical; conditions: TR-FRET, 1 μM 24(S)-25-epoxycholesterol prestimulation; read-out: FRETβ (EC50 range)
T2 construct: amino acids 156-461; NP009052; made in house; host or cells: E. coli
T2 sequence (P55055 with tags, fused parts or gaps DUP175-175 limits assumed): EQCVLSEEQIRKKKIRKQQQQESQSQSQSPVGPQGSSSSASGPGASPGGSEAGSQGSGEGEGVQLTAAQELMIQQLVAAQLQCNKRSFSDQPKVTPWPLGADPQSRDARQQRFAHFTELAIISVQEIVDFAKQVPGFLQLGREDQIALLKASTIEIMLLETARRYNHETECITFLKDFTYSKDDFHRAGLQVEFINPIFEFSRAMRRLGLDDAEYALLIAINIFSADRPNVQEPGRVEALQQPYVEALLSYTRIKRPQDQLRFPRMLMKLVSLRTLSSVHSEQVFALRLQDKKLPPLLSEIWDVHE
Experimental: as §1
Recombinant GST-LXRPβ ligand-binding domain (LBD; amino acids 156-461; NP009052; SEQ ID NO:4) was expressed in E. coli and purified via gluthatione-sepharose affinity chromatography. N-terminally biotinylated NCoA3 coactivator peptide (SEQ ID NO:7) was chemically synthesized (Eurogentec). Assays were done in 384 well format (final assay volume of 25 μL/well) in a Tris/HCl buffer (pH 6.8) containing KCl, bovine serum albumin, Triton-X-100 and 1 μM 24(S)-25-epoxycholesterol as LXR-prestimulating agonist. Assay buffer was provided and test articles (potential LXR inverse agonists) were titrated to yield final assay concentrations of 50 μM, 16.7 μM, 5.6 μM, 1.9 μM, 0.6 μM, 0.2 μM, 0.07 μM, 0.02 μM, 0.007 μM, 0.002 μM with one vehicle control. Finally, a detection mix was added containing anti GST-Tb cryptate (CisBio; 610SAXLB) and Streptavidin-XL665 (CisBio; 610SAXLB) as fluorescent donor and acceptor, respectively, as well as the coactivator peptide and LXRβ-LBD protein (SEQ ID NO:4). The reaction was mixed thoroughly, equilibrated for 1 h at 4° C. and vicinity of LXRβ and coactivator peptide was detected by measurement of fluorescence in a VictorX4 multiplate reader (PerkinElmer Life Science) using 340 nm as excitation and 615 and 665 nm as emission wavelengths. Assays were performed in triplicates.
Final Assay Concentrations of Components:
240 mM KCl, 1 μg/μL BSA, 0.002% Triton-X-100, […] anti GST-Tb cryptate, 2.5 ng/μL Streptavidin-XL665, coactivator peptide (400 nM), LXRβ protein (530 μg/mL, i.e. 76 nM).

| Compound | EC50 [1] [nM] | EC50 [2] [nM] |
| --- | --- | --- |
| Cc1ccc(S(=O)(=O)n2c(-c3cccc(N4CC(C(=O)O)C4)c3)c(-c3ccsc3/C=N/O)c3cc(F)ccc32)cc1 [3/7] | < 100 | 1000 to 10000 |
| Cc1ccc(S(=O)(=O)n2c(-c3cccc(S(=O)(=O)CC(=O)O)c3)c(-c3ccsc3C#N)c3ccccc32)cc1 [3/15] | – | 1000 to 10000 |
| Cc1ccc(S(=O)(=O)n2c(-c3cccc(N4CC(C(=O)O)C4)c3)c(-c3ccsc3C(=O)N(C)C)c3cc(F)ccc32)cc1 [3/28] | 1000 to 10000 | > 10000 |
| Cc1ccc(S(=O)(=O)n2c(-c3cccc(-c4ccc(C(N)=O)cc4)c3)c(-c3ccsc3C#N)c3cc(F)ccc32)cc1 [6/2] | < 100 | 100 to 1000 |
| Cc1cccc(C#N)c1-c1c(-c2cccc(-c3ccc(C(=O)O)cc3Cl)c2)n(S(=O)(=O)c2ccc(C(F)F)cc2)c2ccc(F)cc12 [11/36, 2-chloro-3′-(3-(2-cyano-6-methylphenyl)-1-((4-(difluoro-methyl)phenyl)sulfonyl)-5-fluoro-1H-indol-2-yl)-[1,1′-biphenyl]-4-carboxylic Acid] | < 100 | < 100 |
| N#Cc1cccc(C#N)c1-c1c(-c2cccc(-c3ccc(C(=O)O)cc3)c2)n(S(=O)(=O)c2ccc(C(F)F)cc2)c2ccc(F)cc12 [11/50] | < 100 | < 100 |
| N#Cc1sccc1-c1c(-c2cccs2)n(S(=O)(=O)c2ccc(Cl)cc2)c2cc(OCC(=O)O)ccc12 [15/3] | – | > 10000 |
| N#Cc1sccc1-c1c(-c2ccccc2)n(S(=O)(=O)c2ccc(CC(=O)O)cc2)c2ccccc12 [27/1] | – | 1000 to 10000 |
| N#Cc1sccc1-c1c(-c2ccccc2)n(S(=O)(=O)c2ccc(-c3cccc(C(=O)O)c3)cc2)c2ccccc12 [27/2] | – | 1000 to 10000 |
| N#Cc1sccc1-c1c(-c2ccccc2)n(S(=O)(=O)c2ccc(CC(=O)O)s2)c2ccccc12 [27/3] | – | > 10000 |
| Cn1cnc(S(=O)(=O)n2c(-c3cccc(C4CC4C(=O)O)c3)c(-c3ccsc3C#N)c3ccccc32)c1 (stereo not drawn) [30/10] | – | > 10000 |
| Cc1ccc(S(=O)(=O)n2c(-c3cccc(-c4ccc(CN(C)C)cc4Cl)c3)c(-c3ccsc3C#N)c3cc(F)ccc32)cc1 [Example 2, 3-(2-(2′-Chloro-4′-((dimethylamino)methyl)-[1,1′-biphenyl]-3-yl)-5-fluoro-1-tosyl-1H-indol-3-yl)thiophene-2-carbonitrile] | < 100 | 100 to 1000 |
| Cc1ccc(S(=O)(=O)n2c(-c3cccc(-c4cncc(S(=O)(=O)CC(=O)O)c4)c3)c(-c3ccsc3C#N)c3ccccc32)cc1 [Example 5, 2-((5-(3-(3-(2-Cyanothiophen-3-yl)-1-tosyl-1H-indol-2-yl)phenyl)pyridin-3-yl)sulfonyl)acetic Acid] | 1000 to 10000 | 100 to 1000 |
| Cc1ccc(S(=O)(=O)n2c(-c3cccc(-c4ccc(C(=O)NO)cc4)c3)c(-c3ccsc3C#N)c3cc(F)ccc32)cc1 [Example 6, 3′-(3-(2-Cyanothiophen-3-yl)-5-fluoro-1-tosyl-1H-indol-2-yl)-N-hydroxy-[1,1′-biphenyl]-4-carboxamide] | < 100 | 100 to 1000 |
| Cc1ccc(S(=O)(=O)n2c(-c3cccc(-c4ccc(C(=O)NCCS(=O)(=O)O)cc4Cl)c3)c(-c3ccsc3C#N)c3cc(F)ccc32)cc1 [Example 10, 2-(2-Chloro-3′-(3-(2-cyanothiophen-3-yl)-5-fluoro-1-tosyl-1H-indol-2-yl)-[1,1′-biphenyl]-4-carboxamido)ethane-1-sulfonic Acid] | 100 to 1000 | 100 to 1000 |
| Cc1ccc(S(=O)(=O)n2c(-c3cccc(-c4ccc(C(=O)O)cc4Cl)c3)c(-c3ccccc3C#N)c3cc(F)ccc32)cc1 [Example 11, 2-Chloro-3′-(3-(2-cyanophenyl)-5-fluoro-1-tosyl-1H-indol-2-yl)-[1,1′-biphenyl]-4-carboxylic acid] | < 100 | < 100 |
| Cc1ccc(S(=O)(=O)n2c(-c3cccc(-c4cc(C)c(C(=O)O)cc4Cl)c3)c(-c3ccsc3C#N)c3cc(F)ccc32)cc1 [Example 12, 2-Chloro-3′-(3-(2-cyanothiophen-3-yl)-5-fluoro-1-tosyl-1H-indol-2-yl)-5-methyl-[1,1′-biphenyl]-4-carboxylic acid] | < 100 | 100 to 1000 |
| N#Cc1sccc1-c1c(-c2cccs2)n(S(=O)(=O)c2ccc(Cl)cc2)c2cc(C(=O)O)ccc12 [Example 19, 1-((4-Chlorophenyl)sulfonyl)-3-(2-cyanothiophen-3-yl)-2-(thiophen-2-yl)-1H-indole-6-carboxylic Acid] | – | > 10000 |
| Cc1ccc(S(=O)(=O)n2c(-c3cccc(-c4cnc(C(=O)O)cc4C)c3)c(-c3ccsc3C#N)c3cc(F)ccc32)cc1 [Example 36, 5-(3-(3-(2-Cyanothiophen-3-yl)-5-fluoro-1-tosyl-1/indol-2-yl)phenyl)-4-methylpicolinic Acid] | 100 to 1000 | 1000 to 10000 |
| Cc1ccc(S(=O)(=O)n2c(-c3cccc(-c4ccc(-c5nnn[nH]5)cc4Cl)c3)c(-c3ccsc3C#N)c3cc(F)ccc32)cc1 [Example 37, 3-(2-(2′-Chloro-4′-(1H-tetrazol-5-yl)-[1,1′-biphenyl]-3-yl)-5-fluoro-1-tosyl-1H-indol-3-yl)thiophene-2-carbonitrile] | < 100 | 100 to 1000 |

Source: patent US11618747B2, “LXR modulators with bicyclic core moiety” (OrsoBio, Inc., priority 2018, dated 2023)
